Results: ChEMBL document CHEMBL1137194, “Possible differences in modes of agonist and antagonist binding at human 5-HT6 receptors” (Bioorg Med Chem Lett, 2004)

Target: 5-hydroxytryptamine receptor 6 (Homo sapiens, UniProt P50406)
Experiment: Binding affinity against 5-hydroxytryptamine 6 receptor

Sequence of 5-hydroxytryptamine receptor 6 (P50406 whole entry): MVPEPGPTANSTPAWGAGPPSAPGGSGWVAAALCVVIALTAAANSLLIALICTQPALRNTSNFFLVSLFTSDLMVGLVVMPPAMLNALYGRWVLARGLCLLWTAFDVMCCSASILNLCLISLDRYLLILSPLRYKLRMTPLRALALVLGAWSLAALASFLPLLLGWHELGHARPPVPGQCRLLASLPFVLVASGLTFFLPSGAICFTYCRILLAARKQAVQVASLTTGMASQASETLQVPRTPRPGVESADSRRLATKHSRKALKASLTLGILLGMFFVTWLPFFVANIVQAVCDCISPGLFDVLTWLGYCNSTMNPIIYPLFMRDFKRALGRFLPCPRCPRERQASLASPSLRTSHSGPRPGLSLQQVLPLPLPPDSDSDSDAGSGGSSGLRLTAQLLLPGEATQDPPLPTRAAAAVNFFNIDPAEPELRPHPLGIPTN

Structure (SMILES) | Ki
CN(C)CCc1cn(Cc2ccccc2)c2ccccc12 | 6 nM
CCN(CC)CCc1cn(S(=O)(=O)c2ccccc2)c2ccc(OC)cc12 | 6 nM
CN(C)CC[N+]1=CCc2ccccc21 | 1900 nM
CCCc1c(CCN(C)C)c2cc(OC)ccc2n1S(=O)(=O)c1ccccc1 | 2.3 nM
CN(C)CCn1ccc2ccccc21 | > 5000 nM
CN(C)CCN1CCc2ccccc21 | > 5000 nM
CN(C)CCC1=CC(Cc2ccccc2)c2ccccc21 (centres undefined) | 3 nM
COc1ccc2c(c1)c(CCN(C)C)cn2S(=O)(=O)c1ccccc1 | 2 nM
COc1ccc2c(c1)c(CCN(C)C)cn2S(=O)(=O)c1ccc(N)cc1 | 0.6 nM
